From the supplement of paper PMC8671470

Legend:
Conditions in all cases: 72 h
HL-60 [1] = assay: area under dose-response curve (viability, 1 nM-10 uM) (fraction (0-1)); higher = more sensitive
How it was run: (§1)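 Area under the curve, where listed, was derived from four-parameter log-logistic fits with drc and PharmacoGx. These fits used CellTiter-Glo viability from HL-60 cells in RPMI 1640 with 10% FBS, normalised to DMSO wells and wells holding 10 μM proteasome inhibitor. The full library was rescreened on 384-well plates in duplicate at five tenfold concentrations, 1–10,000 nM, with DMSO or 100 nM of one of three metabolic inhibitors, for 72 h at 37 °C, 5% CO2.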

HL-60 [2] = assay: cell viability (% survival relative to DMSO control); higher = less cytotoxic
How it was run: as §1

[3] = tested on: myeloid leukemia patient primary cells Pat.3; assay: cell viability (% survival relative to DMSO control); higher = less cytotoxic
How it was run: (§2)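 Thawed, Ficoll-purified mononuclear cells from AML or CML patients in RPMI 1640 with 10% FBS were seeded at 10,000 cells/well on 384-well plates pre-printed with 70 compounds at five tenfold concentrations, 1–10,000 nM, in duplicate, for 72 h. Viability was read by CellTiter-Glo and normalised to DMSO and 10 μM proteasome-inhibitor wells. Where given, area under the curve came from four-parameter log-logistic fits (drc, PharmacoGx R packages).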

[4] = tested on: myeloid leukemia patient primary cells Pat.14; assay: as above
How it was run: as §2

[5] = tested on: myeloid leukemia patient primary cells Pat.4; assay: as above
How it was run: as §2

[6] = tested on: myeloid leukemia patient primary cells Pat.8; assay: as above
How it was run: as §2

[7] = tested on: myeloid leukemia patient primary cells Pat.13; assay: as above
How it was run: as §2

[8] = tested on: myeloid leukemia patient primary cells Pat.6; assay: as above
How it was run: as §2

[9] = tested on: myeloid leukemia patient primary cells Pat.12; assay: as above
How it was run: as §2

[10] = tested on: myeloid leukemia patient primary cells Pat.11; assay: as above
How it was run: as §2

[11] = tested on: myeloid leukemia patient primary cells Pat.5; assay: as above
How it was run: as §2

[12] = tested on: myeloid leukemia patient primary cells Pat.1; assay: as above
How it was run: as §2

[13] = tested on: myeloid leukemia patient primary cells Pat.2; assay: as above
How it was run: as §2

[14] = tested on: myeloid leukemia patient primary cells Pat.15; assay: as above
How it was run: as §2

[15] = tested on: myeloid leukemia patient primary cells Pat.7; assay: as above
How it was run: as §2

[16] = tested on: myeloid leukemia patient primary cells Pat.10; assay: as above
How it was run: as §2

[17] = tested on: myeloid leukemia patient primary cells Pat.9; assay: as above
How it was run: as §2

CN(Cc1cnc2nc(N)nc(N)c2n1)c1ccc(C(=O)N[C@@H](CCC(=O)O)C(=O)O)cc1 [Methotrexate]
Conditions | area under dose-response curve, co-treatment: AZD3965 100 nM | area under dose-response curve, co-treatment: DMSO vehicle | area under dose-response curve, co-treatment: GSK2194069 100 nM | area under dose-response curve, co-treatment: pictilisib 100 nM | cell viability, 1 nM [%] | cell viability, 10 nM [%] | cell viability, 100 nM [%] | cell viability, 1000 nM [%] | cell viability, 10000 nM [%]
HL-60 [1] | 0.618 | 0.523 | 0.515 | 0.544 | – | – | – | – | –
[3] | – | – | – | – | 46 | 95 | 40 | 10.9 | 5.65
[4] | – | – | – | – | 89 | 94.6 | 87.8 | 22.5 | 35.6
[5] | – | – | – | – | 88 | 87.6 | 70.2 | 73.6 | 95.8
[6] | – | – | – | – | 76.5 | 89.1 | 96.3 | 70.3 | 86.1
[7] | – | – | – | – | 96.4 | 88.3 | 82.7 | 58.2 | 88.5
[8] | – | – | – | – | 99.7 | 95.8 | 97.1 | 67.7 | 92
[9] | – | – | – | – | > 100 | 98.1 | 97.4 | 87 | 97.3
[10] | – | – | – | – | 96.2 | 98.4 | 97.3 | 81.7 | 95.5
[11] | – | – | – | – | 98.7 | 50.1 | 57.6 | < 0 | 46.4
[12] | – | – | – | – | 99.6 | > 100 | 87.7 | 72.5 | 92.6
[13] | – | – | – | – | 98.8 | 96.8 | 98.1 | 75.3 | 63.1
[14] | – | – | – | – | 95.4 | 89.3 | > 100 | 80.5 | 91.1
[15] | – | – | – | – | 94.1 | 89.1 | 56.6 | 15.2 | 34.5
[16] | – | – | – | – | 68.8 | 42.2 | 80.2 | 23 | 15.2
[17] | – | – | – | – | 51.4 | 92.2 | 25.9 | 6.38 | 0.492

cell viability [%], HL-60 [2]
Conditions | 0.001 µM | 0.01 µM | 0.1 µM | 1 µM | 10 µM
co-treatment: AZD3965 100 nM | 108 | 50.6 | 28 | 26.3 | 26.8
co-treatment: DMSO vehicle | 101.2 | 68.4 | 42.4 | 32.7 | 41.2
co-treatment: GSK2194069 100 nM | 110 | 72.4 | 39 | 27.9 | 29.7
co-treatment: pictilisib 100 nM | 104 | 69.8 | 32.358 | 27.3 | 28.1

CC(=O)Nc1nc(C)c(-c2ccc(Cl)c(S(=O)(=O)NCCO)c2)s1 [PIK93]
Conditions | area under dose-response curve, co-treatment: AZD3965 100 nM | area under dose-response curve, co-treatment: DMSO vehicle | area under dose-response curve, co-treatment: GSK2194069 100 nM | area under dose-response curve, co-treatment: pictilisib 100 nM | cell viability, 1 nM [%] | cell viability, 10 nM [%] | cell viability, 100 nM [%] | cell viability, 1000 nM [%] | cell viability, 10000 nM [%]
HL-60 [1] | 0.172 | 0.135 | 0.154 | 0.181 | – | – | – | – | –
[3] | – | – | – | – | 46.7 | 24 | 70.6 | 59.3 | 15.4
[4] | – | – | – | – | 72.6 | 2.07 | 52.8 | 63.9 | 38.6
[5] | – | – | – | – | 97.3 | 87.1 | 72.2 | 10.6 | 6.67
[6] | – | – | – | – | 86.5 | 81.9 | 87.9 | 64.2 | 48.8
[7] | – | – | – | – | 91.2 | 35.4 | 61.6 | 54.3 | 14.4
[8] | – | – | – | – | 91.8 | 35.2 | 87.8 | 72.1 | 40.8
[9] | – | – | – | – | 94.1 | 92.3 | 95.9 | 88.3 | 79
[10] | – | – | – | – | 96.6 | 85.4 | 88.7 | 54.6 | 32.4
[11] | – | – | – | – | 57.4 | 2.24 | 1.33 | 17 | 1.33
[12] | – | – | – | – | 83.9 | 67.2 | 62.5 | 22.1 | 12.1
[13] | – | – | – | – | 94.4 | 44.8 | 95.8 | 65.5 | 47.8
[14] | – | – | – | – | 83.6 | 92.9 | 65.4 | 9.62 | 2.38
[15] | – | – | – | – | 61.6 | < 0 | 63.4 | 64.1 | 22
[16] | – | – | – | – | 65.9 | 22.6 | 56.6 | 60.8 | 16.8
[17] | – | – | – | – | 68.9 | 0.773 | 23.7 | 24.5 | 5.28

cell viability [%], HL-60 [2]
Conditions | 0.001 µM | 0.01 µM | 0.1 µM | 1 µM | 10 µM
co-treatment: AZD3965 100 nM | 102.8 | 103 | 100 | 77.3 | 13.3
co-treatment: DMSO vehicle | 98.3 | 101 | 99.6 | 85.1 | 23.5
co-treatment: GSK2194069 100 nM | 102 | 106 | 103 | 81.7 | 18.2
co-treatment: pictilisib 100 nM | 102 | 107 | 97 | 70.2 | 16.6

C[C@]12C=CC(=O)C=C1CC[C@@H]1[C@@H]2[C@@H](O)C[C@@]2(C)[C@H]1CC[C@]2(O)C(=O)CO [Prednisolone]
Conditions | area under dose-response curve, co-treatment: AZD3965 100 nM | area under dose-response curve, co-treatment: DMSO vehicle | area under dose-response curve, co-treatment: GSK2194069 100 nM | area under dose-response curve, co-treatment: pictilisib 100 nM | cell viability, 1 nM [%] | cell viability, 10 nM [%] | cell viability, 100 nM [%] | cell viability, 1000 nM [%] | cell viability, 10000 nM [%]
HL-60 [1] | < 0.0301 | < 0.0301 | < 0.0301 | < 0.0301 | – | – | – | – | –
[3] | – | – | – | – | 95 | 71.2 | 73.9 | 46 | 35.2
[4] | – | – | – | – | 85.8 | 46.4 | 80.9 | 94 | 68.3
[5] | – | – | – | – | 95.3 | 78.8 | 78.4 | 75.8 | 53.7
[6] | – | – | – | – | 86.3 | 70.1 | 87.3 | 59.3 | 47.6
[7] | – | – | – | – | 93.4 | 82 | 92.6 | > 100 | > 100
[8] | – | – | – | – | > 100 | 75.7 | 89.4 | 78.5 | 66.2
[9] | – | – | – | – | 89 | 88.8 | 95.7 | 83.9 | 79
[10] | – | – | – | – | 96.9 | 93.5 | 85 | 83 | 64.8
[11] | – | – | – | – | 40.8 | 10.3 | 21.7 | 72 | 20.7
[12] | – | – | – | – | 83.7 | 69.7 | > 100 | > 100 | 97.2
[13] | – | – | – | – | 95.6 | 86.1 | 87.2 | 77.3 | 76.4
[14] | – | – | – | – | 81.1 | 88.6 | 86.1 | 75.4 | 61.2
[15] | – | – | – | – | 66.5 | 60.7 | 84.5 | 83.6 | 83.4
[16] | – | – | – | – | 73.8 | 39.2 | 17.1 | 31.4 | 2.16
[17] | – | – | – | – | 99.2 | 18.2 | 84.8 | > 100 | > 100

cell viability [%], HL-60 [2]
Conditions | 0.001 µM | 0.01 µM | 0.1 µM | 1 µM | 10 µM
co-treatment: AZD3965 100 nM | 82.4 | 96.7 | 103 | 103 | 96.2
co-treatment: DMSO vehicle | 95.9 | 104 | 100 | 103 | 101.5
co-treatment: GSK2194069 100 nM | 94.8 | 101 | 98.4 | 101 | 100
co-treatment: pictilisib 100 nM | 90 | 92.8 | 99.1 | 105.5 | 95.8
